Source: US20230172961A1 (priority 2020, published 2023)

How the values were obtained:
Thermo Sequenase = test: DNA polymerase extension reaction, MALDI-TOF MS, high fidelity polymerase; details: 10 µM nucleotide, DNA template and primer
[1] = target: SARS-CoV RdRp (nsp12, nsp7 and nsp8) (Severe acute respiratory syndrome coronavirus, UniProt P0C6X7); format: biochemical
[2] = target: T1, SARS-CoV-2 RdRp (nsp12, nsp7 and nsp8) (Severe acute respiratory syndrome coronavirus 2, UniProt P0DTD1); details: kinetic studies of Gordon et al 2020a, b; RDV-TP with MERS-CoV and SARS-CoV-2 RdRps; cited from earlier work
Therminator II = Therminator II (Thermococcus sp., UniProt Q56366, A485L/D141A/E143A/Y409V); details: 10 µM nucleotide, DNA template and primer, MALDI-TOF MS
[3] = target: T1, SARS-CoV-2 RdRp (nsp12, nsp7 and nsp8); format: biochemical
Therminator IX = details: 10 µM nucleotide, DNA template and primer, MALDI-TOF MS
SARS-CoV-2 = details: hamsters; cited from earlier work
[4] = system: SARS-CoV-2 infection of human brain organoids; details: cited from earlier work
SARS-CoV-2 RdRp = SARS-CoV-2 RdRp (Severe acute respiratory syndrome coronavirus 2, UniProt P0DTD1); details: biochemical assays; cited from earlier work
[5] = system: SARS-CoV-2 in Calu-3 lung cells; details: screen of 1200 drugs; cited from earlier work
[6] = target: SARS-CoV-2 exonuclease complex (nsp14/nsp10) (Severe acute respiratory syndrome coronavirus 2, UniProt P0DTD1); test: Inhibition of SARS-CoV-2 exonuclease, MALDI-TOF MS; format: biochemical; details: 30 nM nsp14/nsp10, 37° C., 15 min
[7] = system: SARS-CoV-2 in Vero and pulmonary epithelial cell culture; details: in the presence or absence of Ritonavir; cited from earlier work

Therminator II, sequence (Q56366 whole entry D141A/E143A/Y409V/A485L): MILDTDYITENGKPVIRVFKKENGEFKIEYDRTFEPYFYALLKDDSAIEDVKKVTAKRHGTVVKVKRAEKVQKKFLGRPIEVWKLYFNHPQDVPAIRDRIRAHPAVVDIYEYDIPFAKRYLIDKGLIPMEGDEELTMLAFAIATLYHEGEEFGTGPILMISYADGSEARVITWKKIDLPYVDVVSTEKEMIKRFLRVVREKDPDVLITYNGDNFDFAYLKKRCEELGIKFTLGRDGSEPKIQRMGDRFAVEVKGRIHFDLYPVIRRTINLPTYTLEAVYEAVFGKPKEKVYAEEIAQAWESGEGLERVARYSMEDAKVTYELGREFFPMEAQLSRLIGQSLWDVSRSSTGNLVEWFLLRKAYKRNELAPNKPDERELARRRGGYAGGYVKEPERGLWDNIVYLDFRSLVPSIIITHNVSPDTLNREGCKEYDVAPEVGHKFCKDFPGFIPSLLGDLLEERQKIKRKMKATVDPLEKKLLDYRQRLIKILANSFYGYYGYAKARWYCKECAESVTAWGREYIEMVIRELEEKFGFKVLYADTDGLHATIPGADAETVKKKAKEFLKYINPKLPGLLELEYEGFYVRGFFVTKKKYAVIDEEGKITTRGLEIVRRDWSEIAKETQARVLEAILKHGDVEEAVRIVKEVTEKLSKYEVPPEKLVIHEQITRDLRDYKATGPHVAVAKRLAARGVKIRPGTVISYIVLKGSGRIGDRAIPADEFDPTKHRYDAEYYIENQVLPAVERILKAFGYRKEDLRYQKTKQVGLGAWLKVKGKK

**Q.** What does the source list for 2′-fluoro-2′-methyl-UTP [2′-F,Me-UTP]?
**A.** incorporation and block of further nucleotide incorporation (Thermo Sequenase): no incorporation; termination of the polymerase reaction [1]: permanent terminators; incorporation efficiency relative to the natural nucleotide [2]: lower incorporation efficiency than the natural nucleotide; incorporation and block of further nucleotide incorporation (Therminator II): able to be incorporated and block further nucleotide incorporation; incorporation efficiency [3]: efficient substrates of the RdRp; termination of the polymerase reaction [3]: single nucleotide (2′-F,Me-UMP) primer extension product; incorporation and block of further nucleotide incorporation (Therminator IX): able to be incorporated and block further nucleotide incorporation

**Q.** Which “viral loads in the respiratory tract” value (SARS-CoV-2) does the source give for `CNC(=C[N+](=O)[O-])NCCSCc1ccc(CN(C)C)o1.O=C([O-])CC(O)(CC(=O)[O-])C(=O)[O-].[Bi+3]` [Ranitidine bismuth citrate] here?
**A.** Its value is “decrease viral loads in the respiratory tract of hamsters”.

**Q.** Which “protection from SARS-CoV-2 infection” value [4] does the source give for `CC(C)OC(=O)[C@H](C)N[P@](=O)(OC[C@H]1O[C@@H](n2ccc(=O)[nH]c2=O)[C@](C)(F)[C@@H]1O)Oc1ccccc1` [Sofosbuvir] here?
**A.** The value was “protect human brain organoids from SARS-CoV-2 infection”.

**Q.** With `Cc1ccc(C(=O)Nc2ccc(S(=O)(=O)O)c3cc(S(=O)(=O)O)cc(S(=O)(=O)O)c23)cc1NC(=O)c1cccc(NC(=O)Nc2cccc(C(=O)Nc3cc(C(=O)Nc4ccc(S(=O)(=O)O)c5cc(S(=O)(=O)O)cc(S(=O)(=O)O)c45)ccc3C)c2)c1` [Suramin] as the molecule, how does the “potency relative to Remdesivir” value (SARS-CoV-2 RdRp) read?
**A.** The value was 20 ×.

**Q.** Which results are given for `COC[C@H]1C[C@@H](c2nc(-c3ccc4c(c3)COc3cc5c(ccc6nc([C@@H]7CC[C@H](C)N7C(=O)[C@@H](NC(=O)OC)C(C)C)[nH]c65)cc3-4)c[nH]2)N(C(=O)[C@H](NC(=O)OC)c2ccccc2)C1` [Velpatasvir]?
**A.** synergism with Remdesivir in inhibiting viral production [5]: strongest effects; inhibition of exonuclease activity ([6]; 50 µM inhibitor): shows inhibition of the exonuclease activity; inhibition of exonuclease activity ([6]; 150 µM inhibitor): increased inhibition of exonuclease activity

**Q.** With `COC(=O)N[C@H](C(=O)N[C@@H](Cc1ccccc1)[C@@H](O)CN(Cc1ccc(-c2ccccn2)cc1)NC(=O)[C@@H](NC(=O)OC)C(C)(C)C)C(C)(C)C` [atazanavir] as the molecule, how does the “inhibition of viral production” value [7] read?
**A.** The value was “inhibits viral production”.
